These results are taken from patent publication US20220273659A1, “HETEROCYCLIC COMPOUNDS AS KINASE INHIBITORS” (NUVATION BIO INC., priority 2019, published 2022).

One assay has as its target T1, FMS kinase (Homo sapiens, UniProt P07333).
T1 construct: purchased Invitrogen (Life Technologies)
The assay is described as follows: LanthaScreen Eu Kinase Binding Assay (ATP, fluorescent-PolyGT substrate). It is filed as biochemical. The method, boiled down:
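TR-FRET read (ex 340, em 495 and 520 nm) after EDTA/Tb-labelled antibody stop; IC50 by four-parameter logistic fit of percent inhibition. Reaction: 1.25 nM FMS, 10 min compound preincubation (3-fold series), then 1 h at room temperature with 10 μM ATP and 200 nM fluorescent PolyGT.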

Assay [1] deals with MCF-7 breast adenocarcinoma cells. As to the kind of experiment: Cancer cell proliferation assay, single agent (cell viability). It is filed as cell-based. The note with it: Homo sapiens, MCF7, Table 4; Rb positive; treatment 144 Hr with medium change at 72 Hr; Cell Titer-Glo or resazurin. The method, boiled down: (§1)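 Viability read by resazurin or CellTiter-Glo after 24 h treatment (BT-549) or 144 h with a 72 h medium change (MCF-7, DU4475). Compounds tested at 7–9 concentrations, e.g. 1.1 nM–10 μM, added the day after seeding; IC50 by nonlinear sigmoidal regression.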
(In general: ATP-based viability assays read luminescence as a measure of living cells.)

For the next assay, the target named is T2, CDK4 (Homo sapiens, UniProt P11802).
T2 construct: purchased Invitrogen PR8064A
T2 sequence (P11802 whole entry): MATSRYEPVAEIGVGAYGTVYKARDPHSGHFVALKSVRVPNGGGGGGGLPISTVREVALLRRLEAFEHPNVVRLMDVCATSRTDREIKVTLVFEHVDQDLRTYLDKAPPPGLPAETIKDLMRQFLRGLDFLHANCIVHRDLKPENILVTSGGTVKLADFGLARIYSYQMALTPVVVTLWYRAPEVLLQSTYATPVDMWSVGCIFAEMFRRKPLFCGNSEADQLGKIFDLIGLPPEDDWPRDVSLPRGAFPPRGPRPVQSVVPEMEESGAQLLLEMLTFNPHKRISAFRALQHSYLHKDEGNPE
T2 sequence (P24385 whole entry partner): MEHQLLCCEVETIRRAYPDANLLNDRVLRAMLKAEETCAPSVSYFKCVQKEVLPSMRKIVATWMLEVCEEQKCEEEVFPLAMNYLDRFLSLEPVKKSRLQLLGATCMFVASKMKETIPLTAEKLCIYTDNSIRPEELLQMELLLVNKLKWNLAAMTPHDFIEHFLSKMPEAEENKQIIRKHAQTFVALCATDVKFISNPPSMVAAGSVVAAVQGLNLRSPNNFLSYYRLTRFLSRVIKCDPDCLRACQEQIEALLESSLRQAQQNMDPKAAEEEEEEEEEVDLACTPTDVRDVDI
The assay is described as follows: In vitro kinase inhibition IC50, luminescence (ADP Glo), retinoblastoma substrate. It is filed as biochemical. The note with it: read-out: CDK4/D1 IC50. The procedure, abridged:
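Inhibition of CDK4 was quantified by ADP Glo luminescence with retinoblastoma as substrate. Reactions held 5 nM kinase, 1 μM retinoblastoma and 25 μM ATP and ran 2H at room temperature. A Synergy Neo reader took signals 15 min and 45 min after detection reagent, and percent inhibition was fitted to a four-parameter logistic model in XLfit to obtain IC50.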

The target of another assay is T3, CDK6 (Homo sapiens, UniProt Q00534).
T3 construct: purchased Invitrogen PR8422B
T3 sequence (Q00534 whole entry): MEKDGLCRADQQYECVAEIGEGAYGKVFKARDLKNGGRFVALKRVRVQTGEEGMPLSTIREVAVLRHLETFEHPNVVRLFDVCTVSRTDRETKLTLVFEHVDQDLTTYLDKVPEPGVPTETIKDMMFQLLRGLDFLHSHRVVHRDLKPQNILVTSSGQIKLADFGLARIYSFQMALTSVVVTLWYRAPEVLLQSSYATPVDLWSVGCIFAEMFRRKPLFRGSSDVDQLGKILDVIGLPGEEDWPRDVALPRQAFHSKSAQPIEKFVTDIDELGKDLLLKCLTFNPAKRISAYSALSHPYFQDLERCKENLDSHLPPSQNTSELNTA
T3 sequence (P24385 whole entry partner): as the sequence (P24385 whole entry partner) above
The assay is described as above. It is filed as biochemical. The note with it: read-out: CDK6/D1 IC50. The procedure, abridged: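 IC50 derived by four-parameter logistic fit of percent inhibition, read as ADP-Glo luminescence. Reactions: 5 nM CDK6, 1 μM retinoblastoma, 25 μM ATP, test compound 0.1–200 nM final, 2 h at room temperature.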

The target of the next assay is T4, CDK2 (cyclin A) (Homo sapiens, UniProt P24941).
T4 construct: purchased Invitrogen Life Technologies (assay service)
The assay is described as follows: Z'-LYTE kinase assay. It is filed as biochemical. The method, boiled down: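 FRET-based Z′-LYTE read-out using 1.22–10.3 ng CDK2/cyclin A with Ser/Thr 12 peptide (2 μM in the 2× mix) and ATP (31 μM as the 4× solution), in HEPES pH 7.5, MgCl2, EGTA and BRIJ-35, for 60 min at room temperature. After 1 h of development, the 445/520 nm emission was read, and percent inhibition was fitted to a four-parameter logistic curve for IC50.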

The target in another assay is T5, CDK1 (cyclin B) (Homo sapiens, UniProt P06493).
T5 construct: purchased Invitrogen Life Technologies (assay service)
T5 sequence (P06493 whole entry): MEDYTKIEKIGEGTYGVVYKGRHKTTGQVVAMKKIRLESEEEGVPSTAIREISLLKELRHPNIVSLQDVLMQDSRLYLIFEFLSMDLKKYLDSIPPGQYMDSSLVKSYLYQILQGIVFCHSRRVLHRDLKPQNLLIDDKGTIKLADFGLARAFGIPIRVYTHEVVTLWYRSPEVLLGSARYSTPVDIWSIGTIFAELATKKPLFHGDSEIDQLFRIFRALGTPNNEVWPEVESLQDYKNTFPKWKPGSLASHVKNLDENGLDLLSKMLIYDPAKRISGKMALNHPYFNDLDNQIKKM
T5 sequence (P14635 whole entry partner): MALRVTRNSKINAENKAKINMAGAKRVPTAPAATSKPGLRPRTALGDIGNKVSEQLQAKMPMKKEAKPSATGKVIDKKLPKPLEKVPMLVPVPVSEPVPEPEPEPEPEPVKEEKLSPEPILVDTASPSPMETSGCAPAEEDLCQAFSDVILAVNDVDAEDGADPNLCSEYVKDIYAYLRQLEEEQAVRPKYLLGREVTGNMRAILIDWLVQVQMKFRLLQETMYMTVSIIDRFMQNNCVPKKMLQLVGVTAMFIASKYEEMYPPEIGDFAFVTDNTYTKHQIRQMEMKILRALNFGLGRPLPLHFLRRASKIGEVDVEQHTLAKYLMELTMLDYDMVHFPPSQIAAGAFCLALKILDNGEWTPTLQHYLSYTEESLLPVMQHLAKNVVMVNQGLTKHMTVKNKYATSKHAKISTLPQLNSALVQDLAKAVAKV
The assay is described as follows: Z'-LYTE kinase assay. It is filed as biochemical. How it is done:
The plates were shaken for 30 seconds, and incubated for 60 minutes at room temperature. […] The plates were read on fluorescence plate reader with Dual emission at 445 nm and 520 nm.
The following equations were used for Z′-LYTE™ Screening Assay Data Analysis.

A further assay deals with T6, PI3Kδ kinase (Homo sapiens, UniProt O00329).
T6 construct: purchased Reaction Biology Corporation (assay service)
T6 sequence (O00329 whole entry): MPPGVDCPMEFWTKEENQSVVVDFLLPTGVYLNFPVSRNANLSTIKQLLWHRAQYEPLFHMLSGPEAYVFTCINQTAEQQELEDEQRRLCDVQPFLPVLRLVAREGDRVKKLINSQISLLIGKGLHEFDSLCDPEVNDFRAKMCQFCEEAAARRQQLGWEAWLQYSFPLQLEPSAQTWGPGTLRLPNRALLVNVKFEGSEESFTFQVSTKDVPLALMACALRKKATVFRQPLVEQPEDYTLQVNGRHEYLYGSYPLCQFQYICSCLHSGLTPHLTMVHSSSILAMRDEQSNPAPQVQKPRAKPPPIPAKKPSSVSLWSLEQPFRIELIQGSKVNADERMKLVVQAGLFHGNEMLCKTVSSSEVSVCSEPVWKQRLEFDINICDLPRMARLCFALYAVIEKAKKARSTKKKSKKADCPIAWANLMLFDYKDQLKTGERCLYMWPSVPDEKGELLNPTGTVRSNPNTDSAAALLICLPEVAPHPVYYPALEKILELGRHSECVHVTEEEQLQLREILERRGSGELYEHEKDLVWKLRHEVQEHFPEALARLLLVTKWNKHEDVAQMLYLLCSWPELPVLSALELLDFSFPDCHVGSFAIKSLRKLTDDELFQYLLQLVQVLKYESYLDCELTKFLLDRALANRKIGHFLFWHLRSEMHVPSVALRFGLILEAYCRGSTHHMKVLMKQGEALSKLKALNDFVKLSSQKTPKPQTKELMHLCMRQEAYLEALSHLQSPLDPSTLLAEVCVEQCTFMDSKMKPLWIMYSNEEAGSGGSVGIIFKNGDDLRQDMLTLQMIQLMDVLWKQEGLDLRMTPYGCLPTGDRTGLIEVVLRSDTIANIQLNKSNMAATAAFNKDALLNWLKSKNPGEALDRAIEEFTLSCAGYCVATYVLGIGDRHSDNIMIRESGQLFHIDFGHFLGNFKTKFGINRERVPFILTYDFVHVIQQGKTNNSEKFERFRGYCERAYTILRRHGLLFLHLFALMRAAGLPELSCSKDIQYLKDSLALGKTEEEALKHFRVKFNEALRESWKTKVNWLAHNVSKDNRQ
T6 sequence (P27986 whole entry partner): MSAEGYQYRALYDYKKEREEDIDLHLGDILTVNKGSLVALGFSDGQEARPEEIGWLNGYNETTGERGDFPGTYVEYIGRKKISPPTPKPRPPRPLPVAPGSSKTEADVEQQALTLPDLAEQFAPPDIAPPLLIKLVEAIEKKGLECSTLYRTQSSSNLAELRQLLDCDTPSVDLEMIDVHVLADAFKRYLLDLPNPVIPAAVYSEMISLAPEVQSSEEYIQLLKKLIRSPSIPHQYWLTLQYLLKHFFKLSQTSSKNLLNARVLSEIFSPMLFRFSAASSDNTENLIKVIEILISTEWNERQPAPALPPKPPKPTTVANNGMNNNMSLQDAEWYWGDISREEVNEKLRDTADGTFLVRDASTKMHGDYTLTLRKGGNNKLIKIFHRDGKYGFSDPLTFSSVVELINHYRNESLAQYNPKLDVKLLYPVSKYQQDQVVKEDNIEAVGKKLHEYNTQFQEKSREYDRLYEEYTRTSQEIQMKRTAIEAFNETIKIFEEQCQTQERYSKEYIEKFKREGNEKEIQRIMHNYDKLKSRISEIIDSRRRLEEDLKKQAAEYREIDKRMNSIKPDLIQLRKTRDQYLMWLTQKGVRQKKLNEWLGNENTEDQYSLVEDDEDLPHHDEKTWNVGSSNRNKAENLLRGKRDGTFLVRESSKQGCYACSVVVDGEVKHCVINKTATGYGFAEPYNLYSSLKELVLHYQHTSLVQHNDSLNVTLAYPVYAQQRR
As to the kind of experiment: PI3Kδ kinase assay (ADP-Glo, Reaction Biology). It is filed as biochemical. The method, boiled down: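 Kinase in Tris-HCl 40 mM pH 7.5, MgCl2 20 mM, orthovanadate 3 mM, DTT 2 mM, 0.05% CHAPS, 1% DMSO, preincubated 10 min at room temperature with compound (about 0.5 nM–100 μM). ATP started a 30-min reaction at 30 °C. ADP-Glo luminescence converted to μM ADP via standard curve; IC50 from nonlinear regression.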
A general note: In ADP-Glo the light output rises with the ADP produced.

Assay [2] concerns DU4475 breast carcinoma cells. The assay is described as follows: Cancer cell proliferation assay, single agent (cell viability). It is filed as cell-based. The note with it: Homo sapiens, DU-4475; Table 4; Rb negative; treatment 144 Hr with medium change at 72 Hr; Cell Titer-Glo or resazurin. The procedure, abridged:
as §1

Like-named read-outs stand apart in the source and are kept apart here.

T1 sequence (P07333 20-972): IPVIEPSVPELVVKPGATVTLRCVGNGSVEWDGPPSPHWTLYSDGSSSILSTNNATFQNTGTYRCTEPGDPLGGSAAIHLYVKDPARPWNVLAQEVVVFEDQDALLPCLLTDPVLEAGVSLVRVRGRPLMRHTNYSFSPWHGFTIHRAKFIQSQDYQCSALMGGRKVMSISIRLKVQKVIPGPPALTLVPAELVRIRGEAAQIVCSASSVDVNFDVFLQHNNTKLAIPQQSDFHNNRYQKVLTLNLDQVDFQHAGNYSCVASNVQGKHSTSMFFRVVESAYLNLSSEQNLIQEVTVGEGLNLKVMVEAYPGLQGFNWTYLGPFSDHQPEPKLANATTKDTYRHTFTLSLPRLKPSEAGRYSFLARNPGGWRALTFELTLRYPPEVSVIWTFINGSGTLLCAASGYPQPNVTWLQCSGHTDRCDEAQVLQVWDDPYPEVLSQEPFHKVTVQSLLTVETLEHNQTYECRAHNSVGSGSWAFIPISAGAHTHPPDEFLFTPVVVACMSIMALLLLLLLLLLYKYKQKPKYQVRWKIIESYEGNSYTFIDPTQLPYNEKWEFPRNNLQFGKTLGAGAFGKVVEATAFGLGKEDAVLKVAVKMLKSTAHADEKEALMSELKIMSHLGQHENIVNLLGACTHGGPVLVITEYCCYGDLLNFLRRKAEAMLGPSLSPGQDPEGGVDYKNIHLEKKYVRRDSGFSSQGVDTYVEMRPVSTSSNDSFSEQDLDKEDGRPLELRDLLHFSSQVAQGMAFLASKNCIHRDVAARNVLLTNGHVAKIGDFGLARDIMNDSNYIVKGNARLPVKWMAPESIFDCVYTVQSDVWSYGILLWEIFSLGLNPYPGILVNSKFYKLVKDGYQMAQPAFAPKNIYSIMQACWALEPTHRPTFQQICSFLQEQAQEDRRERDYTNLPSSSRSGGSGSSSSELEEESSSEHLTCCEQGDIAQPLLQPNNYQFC

With `CN(C)C1CCc2ccc(Nc3ncc4cc(C#N)c(=O)n(C5CCCC5)c4n3)cc2C1` (stereo not drawn) [Compound No. 48, 8-cyclopentyl-2-((7-(dimethylamino)-5,6,7,8-tetrahydronaphthalen-2-yl)amino)-7-oxo-7,8-dihydropyrido[2,3-d]pyrimidine-6-carbonitrile], the IC50 on FMS kinase is 0.003 µM; in assay [1], 0.945 µM; at CDK4, 0.014 µM; on CDK6, 0.006 µM; at CDK2 (cyclin A), 0.14 µM; at CDK1 (cyclin B) (read-out: CDK1/B IC50) it was 0.488 µM. The IC50 against PI3Kδ kinase was determined as 0.945 µM.
`N#Cc1cc2ccc(Nc3ccc(N4CCNCC4)cc3)nc2n(C2CCCC2)c1=O` [Compound No. 94, 1-cyclopentyl-2-oxo-7-((4-(piperazin-1-yl)phenyl)amino)-1,2-dihydro-1,8-naphthyridine-3-carbonitrile]: the IC50 in assay [2] was 0.485 µM; in assay [1], 1.95 µM; at CDK4, above 0.2 µM; at CDK6, above 0.2 µM; against CDK2 (cyclin A), above 5 µM; on CDK1 (cyclin B) (read-out: CDK1/B IC50), above 5 µM. The compound also registered an IC50 at PI3Kδ kinase above 50 µM.
On to `CCOCCCn1c(=O)c(C#N)cc2cnc(Nc3ccc4c(c3)CCNC4)nc21` [Compound No. 343, 8-(3-ethoxypropyl)-7-oxo-2-((1,2,3,4-tetrahydroisoquinolin-6-yl)amino)-7,8-dihydropyrido[2,3-d]pyrimidine-6-carbonitrile], for which the IC50 on FMS kinase is 0.0065 µM; in assay [2] it was 5.71 µM; in assay [1], 1.28 µM; at CDK4 it was above 0.2 µM; at CDK6 it was above 0.2 µM; against CDK2 (cyclin A), above 3.12 µM. Also, the IC50 is above 5 µM at CDK1 (cyclin B) (read-out: CDK1/B IC50) and 0.77 µM at PI3Kδ kinase.
Regarding `N#Cc1cc2ccc(Nc3ccc4c(c3)CNCC4)nc2n(C2CCCC2)c1=O` [Compound No. 326, 1-cyclopentyl-2-oxo-7-((1,2,3,4-tetrahydroisoquinolin-7-yl)amino)-1,2-dihydro-1,8-naphthyridine-3-carbonitrile], the IC50 in assay [2] was 4.24 µM; in assay [1] it was 3.52 µM; on CDK4, above 0.2 µM; on CDK6, above 0.2 µM; against CDK2 (cyclin A), above 5 µM; at CDK1 (cyclin B) (read-out: CDK1/B IC50), above 5 µM. The IC50 at PI3Kδ kinase was above 50 µM.
Consider `CN(C)S(=O)(=O)N1CCC(Nc2ncc3cc(C#N)c(=O)n(C4CCCC4)c3n2)CC1` [Compound No. 366, 4-((6-cyano-8-cyclopentyl-7-oxo-7,8-dihydropyrido[2,3-d]pyrimidin-2-yl)amino)-N,N-dimethylpiperidine-1-sulfonamide], for which the IC50 on FMS kinase is 0.925 µM; in assay [2], 2.41 µM; in assay [1], 0.32 µM; at CDK4, 0.022 µM; on CDK6 it was 0.0045 µM; at CDK2 (cyclin A), 0.151 µM. For the same compound, the IC50 at CDK1 (cyclin B) is 2.93 µM; against PI3Kδ kinase, above 48.2 µM.
For `N#Cc1cc2cnc(Nc3ccc4c(c3)CCNC4)nc2n(C2CCCC2O)c1=O` (stereo not drawn) [Compound No. 346, 8-(2-hydroxycyclopentyl)-7-oxo-2-((1,2,3,4-tetrahydroisoquinolin-6-yl)amino)-7,8-dihydropyrido[2,3-d]pyrimidine-6-carbonitrile], the IC50 is 0.018 µM at FMS kinase; 10.1 µM in assay [2]; above 30 µM in assay [1]; above 0.2 µM at CDK4; 0.057 µM at CDK6; 0.177 µM on CDK2 (cyclin A). The IC50 is above 5 µM on CDK1 (cyclin B) (read-out: CDK1/B IC50) and 10.2 µM on PI3Kδ kinase.
Regarding `N#Cc1cc2cnc(Nc3ccc4c(c3)CCNC4)nc2n(C2CCC(F)(F)C2)c1=O` (stereo not drawn) [Compound No. 344, 8-(3,3-difluorocyclopentyl)-7-oxo-2-((1,2,3,4-tetrahydroisoquinolin-6-yl)amino)-7,8-dihydropyrido[2,3-d]pyrimidine-6-carbonitrile], the IC50 was determined as 0.0035 µM on FMS kinase; 0.96 µM in assay [2]; 0.435 µM in assay [1]; 0.0775 µM on CDK4; 0.064 µM at CDK6; 0.201 µM at CDK2 (cyclin A). The IC50 on CDK1 (cyclin B) (read-out: CDK1/B IC50) was above 4.67 µM; on PI3Kδ kinase, 1.63 µM.
Take `N#Cc1cc2cnc(NC3CCN(S(=O)(=O)C4CC4)CC3)nc2n(C2CCCC2)c1=O` [Compound No. 356, 8-cyclopentyl-2-((1-(cyclopropylsulfonyl)piperidin-4-yl)amino)-7-oxo-7,8-dihydropyrido[2,3-d]pyrimidine-6-carbonitrile]: the IC50 on FMS kinase was determined as 0.055 µM; in assay [2] it was 1.15 µM; in assay [1], 0.175 µM; on CDK4, 0.002 µM; at CDK6, 0.0045 µM; at CDK2 (cyclin A), 0.0055 µM. Moreover, the IC50 amounted to 0.055 µM on CDK1 (cyclin B) and 19.9 µM against PI3Kδ kinase.
For the compound `N#Cc1cc2cnc(Nc3ccc4c(c3)C(=O)NCC4)nc2n(C2CCCC2)c1=O` [Compound No. 6, 8-cyclopentyl-7-oxo-2-((1-oxo-1,2,3,4-tetrahydroisoquinolin-7-yl)amino)-7,8-dihydropyrido[2,3-d]pyrimidine-6-carbonitrile], the IC50 on FMS kinase was below 0.001 µM; in assay [1], 1.16 µM; at CDK4, 0.008 µM; at CDK6, 0.002 µM; at CDK2 (cyclin A), 0.873 µM; at CDK1 (cyclin B) (read-out: CDK1/B IC50), above 4.65 µM. The IC50 on PI3Kδ kinase stood at 0.163 µM.
Turning to `CCS(=O)(=O)N1CCC(Nc2ncc3cc(C#N)c(=O)n(C4CCCC4)c3n2)CC1` [Compound No. 357, 8-cyclopentyl-2-((1-(ethylsulfonyl)piperidin-4-yl)amino)-7-oxo-7,8-dihydropyrido[2,3-d]pyrimidine-6-carbonitrile], the IC50 at FMS kinase was 0.49 µM; in assay [2], 1.3 µM; in assay [1], 0.19 µM; at CDK4, 0.0027 µM; on CDK6, 0.0058 µM; against CDK2 (cyclin A), 0.011 µM. Further, the IC50 against CDK1 (cyclin B) is 0.23 µM; against PI3Kδ kinase, above 25.3 µM.
With `N#Cc1cc2cnc(Nc3ccc4c(c3)CNCC4)cc2n(C2CCCC2)c1=O` [Compound No. 95, 1-cyclopentyl-2-oxo-7-((1,2,3,4-tetrahydroisoquinolin-7-yl)amino)-1,2-dihydro-1,6-naphthyridine-3-carbonitrile], the IC50 in assay [2] is 1.51 µM; in assay [1], 3.58 µM; on CDK4, above 0.2 µM; on CDK6, above 0.184 µM; at CDK2 (cyclin A), 2.04 µM; on CDK1 (cyclin B) (read-out: CDK1/B IC50) it was above 5 µM. Also, at PI3Kδ kinase, the IC50 was found to be 4.7 µM.
Turning to `CS(=O)(=O)N1CCC(Nc2ncc3cc(C#N)c(=O)n(C4CCC4)c3n2)CC1` [Compound No. 368, 8-cyclobutyl-2-((1-(methylsulfonyl)piperidin-4-yl)amino)-7-oxo-7,8-dihydropyrido [2,3-d] pyrimidine-6-carbonitrile], the IC50 in assay [2] is 1.39 µM; in assay [1], 0.405 µM; on CDK4, 0.034 µM; at CDK6 it was 0.0034 µM; on CDK2 (cyclin A) it was 0.028 µM; at CDK1 (cyclin B), 0.331 µM. Also, the IC50 on PI3Kδ kinase worked out at 1.98 µM.
For `N#Cc1cc2cnc(Nc3ccc(N4CCNCC4)cc3)cc2n(C2CCCC2)c1=O` [Compound No. 88, 1-cyclopentyl-2-oxo-7-((4-(piperazin-4-yl)phenyl)amino)-1,2-dihydro-1,6-naphthyridine-3-carbonitrile], the IC50 was 1.56 µM in assay [2]; 0.034 µM on CDK4; 0.012 µM on CDK6; 1.1 µM on CDK2 (cyclin A); above 5 µM at CDK1 (cyclin B) (read-out: CDK1/B IC50); 0.905 µM against PI3Kδ kinase.
